Patent publication US10597388B2, “Pyridazinone herbicides” (FMC CORPORATION, priority 2014, dated 2020)
Like-named read-outs stand apart in the source and are kept apart here.

Legend:
Assay in all cases: Test A greenhouse herbicide test, pre- and postemergence
Format in all cases: in vivo
corn (Zea mays) = settings: Postemergence
Outline: (§1)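 Visual injury ratings, 0 (no effect) to 100 (complete control), versus untreated plants after roughly 10 d in a greenhouse. Compounds, formulated in a surfactant-containing non-phytotoxic solvent, were sprayed on loam–sand soil after sowing (pre) or on one- to two-leaf plants 2–10 cm tall (post).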

[1] = tested on: pigweed (Amaranthus retroflexus); settings: for pest or weed control at 125 g/ha / pest or weed control at 500 g/ha: Amaranthus retroflexus, 240 h
Outline: as §1

[2] = tested on: ragweed (common ragweed, Ambrosia elatior); settings: for pest or weed control at 125 g/ha / pest or weed control at 500 g/ha: Ambrosia artemisiifolia, 240 h
Outline: as §1

[3] = tested on: foxtail, giant (giant foxtail, Setaria faberii); settings: for pest or weed control at 125 g/ha / pest or weed control at 500 g/ha: Setaria faberi, 240 h
Outline: as §1

[4] = tested on: wheat (Triticum aestivum); settings: Postemergence
Outline: as §1

kochia (Kochia scoparia) = settings: for pest or weed control at 125 g/ha / pest or weed control at 500 g/ha: Bassia scoparia, 240 h
Outline: as §1

[5] = tested on: barnyardgrass (Echinochloa crus-galli); settings: for pest or weed control at 125 g/ha / pest or weed control at 500 g/ha: Echinochloa crus-galli, 240 h
Outline: as §1

[6] = 125 g ai/ha, 0 to 100 scale, 0 no effect, 100 complete control
[7] = 500 g ai/ha, visual rating after approx. 10 d, 0 to 100 scale (0 no effect, 100 complete control)
[8] = Postemergence, 125 g ai/ha, 0 to 100 scale, 0 no effect, 100 complete control
[9] = Postemergence, 500 g ai/ha, visual rating after approx. 10 d, 0 to 100 scale (0 no effect, 100 complete control)
[10] = Preemergence, 125 g ai/ha, visual injury rating, 0 to 100 scale (0 no effect, 100 complete control), approx. 10 d
[11] = Preemergence, 500 g ai/ha, 0 to 100 scale where 0 is no effect and 100 is complete control

For `CC(=O)Oc1c(Cl)nn(C)c(=O)c1-c1c(C)sc2ccc(C(F)(F)F)cc12` [Compound 152], the “Plant response rating, Corn” value (corn (Zea mays); [6]) was 0, the “Plant response rating, Corn” value (corn (Zea mays); [7]) was 0 and the “Plant response rating, Pigweed” value [1, 8] was 50. For the same molecule, the “Plant response rating, Pigweed” value [1, 9] was 60, the “Plant response rating, Pigweed” value [1, 10] was 90 and the “Plant response rating, Pigweed” value [1, 11] was 90. For the same molecule, the “Plant response rating, Ragweed” value [2, 8] was 70, the “Plant response rating, Ragweed” value [2, 9] was 90 and the “Plant response rating, Ragweed” value [2, 10] was 80. For the same molecule, the “Plant response rating, Ragweed” value [2, 11] was 100, the “Plant response rating, Foxtail, Giant” value [3, 8] was 30 and the “Plant response rating, Foxtail, Giant” value [3, 9] was 50. For the same molecule, the “Plant response rating, Foxtail, Giant” value [3, 10] was 40, the “Plant response rating, Foxtail, Giant” value [3, 11] was 90 and the “Plant response rating, Wheat” value [4, 6] was 30. For the same molecule, the “Plant response rating, Wheat” value [4, 7] was 50, the “Plant response rating, Kochia” value (kochia (Kochia scoparia); [8]) was 30 and the “Plant response rating, Kochia” value (kochia (Kochia scoparia); [9]) was 40. The “Plant response rating, Kochia” value (kochia (Kochia scoparia); [10]) was 30, the “Plant response rating, Kochia” value (kochia (Kochia scoparia); [11]) was 70 and the “Plant response rating, Barnyardgrass” value [5, 8] was 20. For the same molecule, the “Plant response rating, Barnyardgrass” value [5, 9] was 40, the “Plant response rating, Barnyardgrass” value [5, 10] was 40 and the “Plant response rating, Barnyardgrass” value [5, 11] was 40.
For `Cc1ccc2oc(C)c(-c3c(OC(=O)C(C)(C)C)c(C)nn(C)c3=O)c2c1` [Compound 17, 5-(2,5-dimethyl-3-benzofuranyl)-1,6-dihydro-1,3-dimethyl-6-oxo-4-pyridazinyl 2,2-dimethylpropanoate], the Corn plant response rating (crop injury, 0 = no effect, 100 = complete kill) at 125 g/ha (corn (Zea mays); Zea mays, post-emergence, 240 h, 125 g ai/ha, visual rating after approx. 10 d, 0 to 100 scale (0 no effect, 100 complete control)) was 0%, the plant injury at 500 g/ha (corn (Zea mays); Zea mays, post-emergence, 240 h, 500 g ai/ha, 0 to 100 scale, 0 is no effect, 100 is complete control, read-out: Corn plant response rating) was 0% and the pest or weed control at 125 g/ha ([1]; post-emergence, Postemergence, 125 g ai/ha, visual rating after approx. 10 d, 0 to 100 scale (0 no effect, 100 complete control), read-out: Plant response rating, Pigweed) was 0%. For the same molecule, the pest or weed control at 500 g/ha ([1]; post-emergence, Postemergence, 500 g ai/ha, 0 to 100 scale, 0 is no effect, 100 is complete control, read-out: Pigweed plant response rating) was 0%, the pest or weed control at 125 g/ha ([1]; pre-emergence, Preemergence, 125 g ai/ha, 0 to 100 scale where 0 is no effect and 100 is complete control, read-out: Pigweed plant response rating) was 0% and the pest or weed control at 500 g/ha ([1]; pre-emergence, Preemergence, 500 g ai/ha, 0 to 100 scale, 0 no effect, 100 complete control, read-out: Plant response rating, Pigweed) was 0%. It also gave a pest or weed control at 125 g/ha ([2]; post-emergence, Postemergence, 125 g ai/ha, visual rating after approx. 10 d, 0 to 100 scale (0 no effect, 100 complete control), read-out: Plant response rating, Ragweed) of 0%, a pest or weed control at 500 g/ha ([2]; post-emergence, Postemergence, 500 g ai/ha, 0 to 100 scale, 0 is no effect, 100 is complete control, read-out: Ragweed plant response rating) of 0% and a pest or weed control at 125 g/ha ([2]; pre-emergence, Preemergence, 125 g ai/ha, 0 to 100 scale where 0 is no effect and 100 is complete control, read-out: Ragweed plant response rating) of 0%. For the same molecule, the pest or weed control at 500 g/ha ([2]; pre-emergence, Preemergence, 500 g ai/ha, 0 to 100 scale, 0 no effect, 100 complete control, read-out: Plant response rating, Ragweed) was 10%, the pest or weed control at 125 g/ha ([3]; post-emergence, Postemergence, 125 g ai/ha, visual rating after approx. 10 d, 0 to 100 scale (0 no effect, 100 complete control), read-out: Plant response rating, Foxtail, Giant) was 0% and the pest or weed control at 500 g/ha ([3]; post-emergence, Postemergence, 500 g ai/ha, 0 to 100 scale, 0 is no effect, 100 is complete control, read-out: Foxtail, Giant plant response rating) was 0%. It also gave a pest or weed control at 125 g/ha ([3]; pre-emergence, Preemergence, 125 g ai/ha, 0 to 100 scale where 0 is no effect and 100 is complete control, read-out: Foxtail, Giant plant response rating) of 0%, a pest or weed control at 500 g/ha ([3]; pre-emergence, Preemergence, 500 g ai/ha, 0 to 100 scale, 0 no effect, 100 complete control, read-out: Plant response rating, Foxtail, Giant) of 0% and a plant injury at 125 g/ha ([4]; Triticum aestivum, post-emergence, 240 h, 125 g ai/ha, visual rating after approx. 10 d, 0 to 100 scale (0 no effect, 100 complete control), read-out: Plant response rating, Wheat) of 0%. It also gave a plant injury at 500 g/ha ([4]; Triticum aestivum, post-emergence, 240 h, 500 g ai/ha, 0 to 100 scale, 0 is no effect, 100 is complete control, read-out: Wheat plant response rating) of 0%, a pest or weed control at 125 g/ha (kochia (Kochia scoparia); post-emergence, Postemergence, 125 g ai/ha, visual rating after approx. 10 d, 0 to 100 scale (0 no effect, 100 complete control), read-out: Plant response rating, Kochia) of 0% and a pest or weed control at 500 g/ha (kochia (Kochia scoparia); post-emergence, Postemergence, 500 g ai/ha, 0 to 100 scale, 0 is no effect, 100 is complete control, read-out: Kochia plant response rating) of 0%. For the same molecule, the pest or weed control at 125 g/ha (kochia (Kochia scoparia); pre-emergence, Preemergence, 125 g ai/ha, 0 to 100 scale where 0 is no effect and 100 is complete control, read-out: Kochia plant response rating) was 0%, the pest or weed control at 500 g/ha (kochia (Kochia scoparia); pre-emergence, Preemergence, 500 g ai/ha, 0 to 100 scale, 0 no effect, 100 complete control, read-out: Plant response rating, Kochia) was 0% and the pest or weed control at 125 g/ha ([5]; post-emergence, Postemergence, 125 g ai/ha, visual rating after approx. 10 d, 0 to 100 scale (0 no effect, 100 complete control), read-out: Plant response rating, Barnyardgrass) was 0%. It also gave a pest or weed control at 500 g/ha ([5]; post-emergence, Postemergence, 500 g ai/ha, 0 to 100 scale, 0 is no effect, 100 is complete control, read-out: Barnyardgrass plant response rating) of 0%, a pest or weed control at 125 g/ha ([5]; pre-emergence, Preemergence, 125 g ai/ha, 0 to 100 scale where 0 is no effect and 100 is complete control, read-out: Barnyardgrass plant response rating) of 0% and a pest or weed control at 500 g/ha ([5]; pre-emergence, Preemergence, 500 g ai/ha, 0 to 100 scale, 0 no effect, 100 complete control, read-out: Plant response rating, Barnyardgrass) of 0%.
